According to PMC6315362, “Cytotoxic Potential of the Novel Horseshoe Crab Peptide Polyphemusin III” (Marine Drugs, 2018):
Where no end group is shown, it is not given here.

Assays:
HL-60 cells = test: Annexin V-FITC/propidium iodide double staining and flow cytometry; format: cell-based, human; conditions: HL-60, 4 h of incubation, 50 μM Z-VAD-FMK
Source text: To further investigate the effect of PM III on human cells, we performed annexin V-FITC/propidium iodide double staining with subsequent flow cytometric analysis. Annexin V-FITC binds to phosphatidylserine, which is exposed on the outer leaflet of the cellular plasma membrane at the initial stages of apoptosis, whereas propidium iodide (PI) preferentially stains nuclei of dead cells. Therefore, a combination of annexin V-FITC and PI assays allows differentiation between early apoptotic and late apoptotic/necrotic cell populations. PM III was used at two final concentrations of 2.5 and 5 μM. In order to elucidate the predominant mechanism of the PM III action, we applied a widely used caspase inhibitor, Z-VAD-FMK [23].
Cell death analysis with fluorescein isothiocyanate conjugated annexin V (annexin V-FITC)/propidium iodide double staining and dead cells counting with flow cytometry were performed 4 h after addition of polyphemusin III up to a final concentration of 2.5 or 5 μM. The Annexin V-FITC Apoptosis Detection Kit (BD Biosciences, Franklin Lakes, NJ, USA) was used according to the manufacturer’s protocol on a NovoCyte flow cytometer (ACEA Biosciences, San Diego, CA, USA). Each experiment was performed in triplicate. The apoptosis inducer camptothecin (Sigma-Aldrich, St. Louis, MO, USA) and the general caspase inhibitor, Z-VAD-FMK (BD Biosciences, Franklin Lakes, NJ, USA), were used. All flow cytometry experiments were performed twice.

[1] = system: Gram-negative and Gram-positive bacteria; conditions: synthetic PM I against Gram-negative and Gram-positive bacteria; cited from earlier work
Procedure: Our experimental data for the obtained recombinant PM I are in line with those obtained earlier for synthetic PM I against Gram-negative and Gram-positive bacteria (with reported MICs not exceeding 1 μM).

Compound | influence of the caspase inhibitor Z-VAD-FMK on the effect of the substance (annexin V-FITC/PI staining) (HL-60 cells) | MICs [1]
CC[C@@]1(O)C(=O)OCc2c1cc1n(c2=O)Cc2cc3ccccc3nc2-1 [campthotecin, camptothecin] | totally abrogated | –
synthetic PM I: synthetic polyphemusin I of earlier reports (RRWCFRVCYRGFCYRKCR; ends and bridges not checked; cysteine pairing not given here; UniProt P14215 1-18, looked up) | – | ≤ 1 µM
